Patent US6509377B1, “Use of a 2-hydroxy-4-trifluoromethylbenzoic acid derivatives as inhibitors of the activation of the nuclear transcription factor NF-κB” (J. Uriach & Cia, S.A., priority 1999, dated 2003)

Legend:
VCAM-1 = experiment: Expression of VCAM-1 mRNA induced by TNF-α in HUVEC (RT-PCR); type: cell-based, human; details: 4 mM, TNF-α 100 U/ml, one hour
Source text: Primers used for the detection of VCAM-1 mRNA by RT-PCR were designed from the human gene sequence (EMBUGenBank AC: M30257), using the Wisconsin Package Version 9.1, Genetics Computer Group (GCG), Madison, Wis. Their sequences were 5′-TGTCACTGTMGCTGCMG-3′ and 5′-TTCCAGCCTGGTTAATTC-3′, corresponding to nucleotides 1090-1108 and 1589-1572 (L. Osbom et al., Cell 1989, 59(6), 1203-1211). Total RNA was extracted from cultured cells using the guanidium isothiocyanate method (P. Chomczynski and N. Sacchi, Anal Biochem. 1987, 162(1), 156-159). cDNA first strand was synthesized from total RNA by reverse transcription reaction. […] The relative amounts of each amplified cDNA were determined by measuring the density of the bands stained with ethidium bromide using the Gel Doc documentation system and the Molecular Analyst software from Bio-Rad Laboratories, Hercules, Calif. […]
Specifically, the effect of Triflusal (4 mM) and HTB (4 mM) on the regulation of the expression of VCAM-1 mRNA induced by TNF-α (100 U/ml) in HUVEC was studied. […] The PCR products were separated by electrophoresis in a 1.8% agarose gel and were later quantified. The molecular weight of the amplification products was determined from the electrophoretic migration of DNA size standards.

iNOS = iNOS expression measured as nitrite production induced by immune complexes in rat peritoneal macrophages; type: cell-based; details: Peritoneal macrophage, 100 μg/ml IgG/ovalbumin, nitrite after 24 hours, mean ± SEM, read-out: IC50, production of nitrite (NO) induced by immune complexes
Procedure: Rat peritoneal cells were obtained and resuspended in DMEM culture medium in the absence of serum and supplemented with antibiotics. Macrophages were isolated by their ability to adhere to culture plates following incubation for 2 hours at 37° C. Non-adherent cells were removed and it was then checked that more than 95% of the adherent cells were macrophages, as assessed by their ability to engulf zymosan particles and nonspecific esterase staining. Culture plates were kept at 37° C. under a 5% CO2 atmosphere, and the peritoneal macrophages adhered to the plates were incubated with 100 μg/ml IgG/ovalbumin immune complexes in the presence or absence (Control) of triflusal or HTB (0.1-20 mM, both). Drugs were added 10 minutes before the addition of IgG/ovalbumin and the production of NO was determined as the nitrite present after 24 hours.
iNOS expression was indirectly measured as the production of NO. NO released from macrophage cultures was determined indirectly by the accumulation of nitrites. […] 50 μl naphthylenediamine (1 mM final concentration) were added and after 15 minutes of incubation the absorbance of the sample was measured at 548 nm and was compared with a NaNO2 standard. The production of NO was expressed as nmol NO2^−/mg protein.

IC50 (iNOS) [µM]	SMILES	inhibition of the expression of VCAM-1 mRNA induced by TNF-α (VCAM-1)
1840 ± 340	O=C(O)c1ccc(C(F)(F)F)cc1O [HTB, 2-hydroxy-4-trifluoromethylbenzoic acid]	completely inhibit
1130 ± 120	CC(=O)Oc1cc(C(F)(F)F)ccc1C(=O)O [triflusal, 2-Acetyloxy-4-trifluoromethylbenzoic acid, reference compound]	completely inhibit
